Molecules are shown by their SMILES. “Also recorded” adds a separate entry of the source.

What all share (type): cell-based, human
Test [1] concerns EMX2 expression in NSCLC cell lines. As to the kind of experiment: DAC de-methylation treatment of NSCLC cell lines, EMX2 expression by semi-quantitative RT-PCR. The conditions noted are these: 5 μM DAC, NSCLC / lung cancer cell lines with initially silenced EMX2. The method, then: Reverse transcription-polymerase chain reaction (RT-PCR) was performed in a GeneAmp PCR system 9700 (Applied Biosystems, Foster City, Calif.), using an RT-PCR kit (SuperScript II one-step RT-PCR with Platinum Taq kit; Invitrogen, Carlsbad, Calif.) according to the manufacturer's protocol. Primers for RT-PCR were obtained from Operon Biotechnologies (Huntsville, Ala.). Total RNA of normal human lung was obtained from the Biochain Institute (Hayward, Calif.). Total RNA (500 ng) was used for each reaction. Primer sequences were as follows: human EMX2 DNA, Forward primer; 5′-[…]-3′ (SEQ ID NO: 3), Reverse primer; 5′-[…]-3′ (SEQ ID NO:4).
Human NSCLC cell lines H1299, H322 and A427 were purchased from American Type Culture Collection (ATCC), (Manassas, Va.). These cell lines were cultured in RPMI 1640 supplemented with 10% fetal bovine serum, penicillin (100 IU/mL) and streptomycin (100 μg/mL). All cells were cultured at 37° C. in a humidified incubator with 5% CO2. Total RNA from cell lines was isolated using RNeasy Mini kit (Qiagen). Treatment with 5 μM 5-aza-2′-deoxycytidine (DAC; Sigma) was done according to Clement G. et al., “Epigenetic alteration of the Wnt inhibitory factor-1 promoter occurs early in the carcinogenesis of Barrett's esophagus.” Cancer Sci 99:46-53 (2008).
Cell Culture and 5-Aza-2′-deoxycytidine (DAC) Treatment. […]

Another test concerns OE33 cells. The test is described as follows: DAC de-methylation treatment, EMX2 expression by semi-quantitative RT-PCR in OE33. The conditions noted are these: OE33 cells that did not originally express EMX2.
Another test concerns TE-7 cells. The test is described as follows: DAC treatment negative control, EMX2 expression by semi-quantitative RT-PCR in TE-7. The conditions noted are these: TE-7 cells that endogenously expressed EMX2.
Test [2] deals with H1299 cells stably transfected with EMX2. As to the kind of experiment: MTS assay of chemo-synergic effect between EMX2 and cisplatin. The conditions noted are these: compared with cisplatin or EMX2 alone, cisplatin 0.3 ng/ml (FIG. 23D). The method, then: The chemo-synergic effect between EMX2 and cisplatin was examined in order to determine whether EMX2 could sensitize NSCLC cells to cisplatin treatment. The H1299 lung cancer cell line was stably transfected with EMX2 The chemo-synergic effect between EMX2 and cisplatin was measured in this cell line by MTS assay (Promega, Madison, Wis.).
Stable EV- or EMX2 transfected cells were plated in 96-well plates at a density of 500 cells per well in 100 μl of culture medium with G418. Medium was changed every three days. Cell viability was evaluated by CELLTITER 96 Aqueous one solution cell proliferation assay (MTS assay) (Promega, Madison, Wis.) on days 1-7. Briefly, 20 μl of reagent was added to each well and incubated in a culture hood for 2 hr. Absorbance at 490 nm was measured with a kinetic microplate reader (Vmax; Molecular Devices, Sunnyvale, Calif.) and was used as a measure of cell number. Experiments were repeated three times.
Proliferation Assays. Stably transfected cells were plated in 96-well plates at a density of 500-1000 cells/well in 100 μl of G418 culture medium. Medium was changed every day. Cell viability was evaluated in triplicate by CellTiter 96 AQueous (Promega) per manufacturer's protocol. […] Colonies were then fixed by 10% formalin, stained with 0.5% crystal violet and counted.

As for `Nc1ncn([C@H]2C[C@H](O)[C@@H](CO)O2)c(=O)n1` [DAC, 5-aza-2′-deoxycytidine], the “EMX2 expression after DAC treatment” value in test [1] is “restored EMX2 expression levels”; in the test with OE33 cells it was “restoration of EMX2 expression”; with OE33 cells (listed as 5-aza-DAC), “restored”. Moreover, in the test on TE-7 cells, the “EMX2 expression levels after DAC treatment” value was “not affected”.

For `N.N.[Cl][Pt][Cl]` [cisplatin], the “Suppression of cell proliferation by cisplatin combined with EMX2” value in test [2] was “further enhanced; also recorded: more efficiently suppressed; also recorded: significantly enhanced”.

Source of the values: patent US9279157B2, “EMX2 in cancer diagnosis and prognosis” (The Regents of the University of California, priority 2009, dated 2016).
